Patent publication US7199147B2, “Rho kinase inhibitors” (Dainippon Sumitomo Pharma Co., Ltd., priority 2001, dated 2007)
Structures can show the parent of a compound that is named as a salt.

Row | Compound | melting point
1 | O=C(CN1CCCCC1)Nc1ccc2[nH]ncc2c1 | 189 to 190 °C
2 | CC(C)CCCOc1ccc2[nH]ncc2c1 | 124 to 126 °C
3 | N[C@H]1CCC[C@@H](Oc2cccc3[nH]ncc23)C1 (relative stereo) | 166 to 168 °C
4 | O=C(NC1CCOCC1)c1ccc2[nH]ncc2c1 | 285 to 286 °C
5 | CN(CCCNc1ccc2[nH]ncc2c1)Cc1ccccc1 | 112 to 114 °C
6 | O=C(NC1CCCN(Cc2ccccc2)C1)c1ccc2[nH]ncc2c1 (centres unmarked) | 203 to 204 °C
7 | N[C@H]1CCC[C@H](Oc2ccc3[nH]ncc3c2)C1 (relative stereo) | 179 to 180 °C
8 | N[C@H]1CC[C@@H](Oc2ccc3[nH]ncc3c2)CC1 | 144 to 146 °C
9 | Cc1c(O[C@H]2CCC[C@H](N)C2)ccc2[nH]ncc12 (relative stereo) | 156 to 160 °C
10 | CN(CCCC(=O)Nc1ccc2[nH]ncc2c1)Cc1ccccc1 | 115 to 117 °C
11 | Cn1ncc2cc(NC3CCNCC3)ccc21 | 111 to 113 °C
12 | Cc1c(O[C@H]2CC[C@H](N)CC2)ccc2[nH]ncc12 | 150 to 152 °C
13 | O=C(CCOCc1ccccc1)Nc1ccc2[nH]ncc2c1 | 167 to 169 °C
14 | Cl.Cl.c1cc2[nH]ncc2cc1NC1CN2CCC1CC2 (centres unmarked) | 184 to 188 °C
15 | CNc1ccc2[nH]ncc2c1 | 144 to 146 °C
16 | N[C@H]1CCC[C@H](Oc2ccc3[nH]ncc3c2Cl)C1 (relative stereo) | 142 to 144 °C
17 | CSc1c(O[C@H]2CC[C@@H](NC(=O)c3ccccc3)CC2)ccc2[nH]ncc12 | 146 to 148 °C
18 | COc1ccc(CN[C@H]2CCC[C@@H](Oc3ccc4[nH]ncc4c3C)C2)cc1 (relative stereo) | 164 to 166 °C
19 | CN(CC(=O)Nc1ccc2[nH]ncc2c1)Cc1ccccc1 | 159 to 160 °C

Row | Compound | melting point
20 | O=C(NC1CCCNC1)c1ccc2[nH]ncc2c1 (centres unmarked) | 265 to 266 °C
21 | OC1CCC(Oc2ccc3[nH]ncc3c2)C1 (centres unmarked) | 147 to 148 °C
22 | c1ccc(CN2CCN(Cc3ccc4[nH]ncc4c3)CC2)cc1 | 147 to 149 °C
23 | c1cc2[nH]ncc2cc1NCC1CCOCC1 | 293 to 294 °C (dec.)
24 | O=C(CCN1CCCCC1)Nc1ccc2[nH]ncc2c1 | 178 to 179 °C
25 | c1cc(OC2CCNCC2)c2cn[nH]c2c1 | 162 to 165 °C
26 | O=C(C=C1CCN(Cc2ccccc2)CC1)Nc1ccc2[nH]ncc2c1 | 169 to 172 °C
27 | Cl.Cl.c1cc(NC2CCNCC2)c2cn[nH]c2c1 | 270 to 271 °C
28 | Cl.Cl.OCCN1C2CCC1CC(Nc1ccc3[nH]ncc3c1)C2 (centres unmarked) | 154 to 157 °C
29 | CCN[C@H]1CC[C@H](Oc2ccc3[nH]ncc3c2C)CC1 | 150 to 151 °C
30 | CN(C)[C@H]1CCC[C@H](Oc2ccc3[nH]ncc3c2)C1 (relative stereo) | 134 to 135 °C
31 | CC(C)N1CCC(Nc2ccc3[nH]ncc3c2)CC1 | 140 to 141 °C
32 | CCOC(=O)N1C2CCC1CC(Nc1ccc3[nH]ncc3c1)C2 (centres unmarked) | 158 to 159 °C
33 | CC(=O)N1CCC(Oc2ccc3[nH]ncc3c2C)CC1 | 161 to 163 °C
34 | Cn1cc2cc(NC3CCNCC3)ccc2n1 | 144 to 147 °C
35 | COc1ccc2[nH]ncc2c1C | 148 to 149 °C
36 | Cc1c(O[C@@H]2CCC[C@H](NCC3CCCC3)C2)ccc2[nH]ncc12 (relative stereo) | 140 to 142 °C
37 | c1cc2[nH]ncc2cc1NC1CC2CCC(C1)N2 (centres unmarked) | 236 to 238 °C
38 | CC(C)COc1ccc2[nH]ncc2c1 | 151 to 153 °C

Row | Compound | melting point
39 | Cc1c(O[C@H]2CC[C@@H](NC(C)C)CC2)ccc2[nH]ncc12 | 166 to 168 °C
40 | c1cc2[nH]ncc2cc1OC1CCCC1 | 141 to 142 °C
41 | CSc1c(O)ccc2[nH]ncc12 | 126 to 128 °C
42 | Cc1c(O[C@H]2CC[C@@H](NC3CCCC3)CC2)ccc2[nH]ncc12 | 153 to 155 °C
43 | CN(C)CCC(=O)Nc1ccc2[nH]ncc2c1 | 152 to 153 °C
44 | CCN[C@H]1CCC[C@H](Oc2ccc3[nH]ncc3c2)C1 (relative stereo) | 116 to 118 °C
45 | NCc1cccc(COc2ccc3[nH]ncc3c2)c1 | 179 to 183 °C
46 | Cc1c(O[C@H]2CCC[C@H](NC3CCCC3)C2)ccc2[nH]ncc12 (relative stereo) | 110 to 112 °C
47 | CC(=O)N1CCC(Nc2ccc3[nH]ncc3c2)CC1 | 193 to 195 °C (dec.)
48 | O=C(Nc1ccc2[nH]ncc2c1)C1CCOCC1 | 286 to 288 °C (dec.)
49 | CC(C)N1CCC(Oc2ccc3[nH]ncc3c2)CC1 | 125 to 126 °C
50 | Cl.Cl.c1ccc(CN2CCC(Nc3cccc4[nH]ncc34)CC2)cc1 | 257 to 260 °C (dec.)
51 | O=S(=O)(Nc1ccc2[nH]ncc2c1)C1CCNCC1 | 120 to 123 °C
52 | COCCC(=O)Nc1ccc2[nH]ncc2c1 | 173 to 174 °C
53 | O=C(c1ccc2[nH]ncc2c1)N1CCNCC1 | 190 to 191 °C
54 | CCS(=O)(=O)N1CCC(Nc2ccc3[nH]ncc3c2)CC1 | 182 to 183 °C
55 | Cc1c(OC2CCN(C(C)C)CC2)ccc2[nH]ncc12 | 134 to 136 °C
56 | O=C(CC1CCN(Cc2ccccc2)CC1)Nc1ccc2[nH]ncc2c1 | 195 to 197 °C

More lines, now with the values ahead:

Row | melting point | Compound
57 | 196 to 197 °C (dec.) | c1cc2cn[nH]c2cc1NC1CCNCC1
58 | 211 to 212 °C | CSc1c(O[C@H]2CC[C@@H](N3C(=O)c4ccccc4C3=O)CC2)ccc2[nH]ncc12
59 | 196 to 198 °C (dec.) | c1ccc(CN2CCN(c3ccc4[nH]ncc4c3)CC2)cc1
60 | 187 to 189 °C | O=C(NC1CCN(Cc2ccccc2)C1)c1ccc2[nH]ncc2c1 (centres unmarked)
61 | 140 to 141 °C | CN(CCC(=O)Nc1ccc2[nH]ncc2c1)Cc1ccccc1
62 | 140 to 143 °C | Cc1c(OC2CCN(C3CCCC3)CC2)ccc2[nH]ncc12
63 | 175 to 177 °C | CN(c1ccc2[nH]ncc2c1)C1CCNCC1
64 | 228 to 229 °C | CN1CCCC(NC(=O)c2ccc3[nH]ncc3c2)C1 (centres unmarked)
65 | 117 to 118 °C | c1ccc(CN2CCC(CCNc3ccc4[nH]ncc4c3)CC2)cc1
66 | 215 to 216 °C (dec.) | CC(C)CCC(=O)Nc1ccc2[nH]ncc2c1
67 | 151 to 152 °C | c1cc2[nH]ncc2cc1OC1CCOCC1 [Example 44]
68 | 160 to 162 °C | Cc1n[nH]c2ccc(NC3CCN(Cc4ccccc4)CC3)cc12
69 | 157 to 159 °C | Cc1c(OC2=CC=CNC=C2)ccc2[nH]ncc12
70 | 152 to 154 °C | CN(c1ccc2[nH]ncc2c1)C1CCN(Cc2ccccc2)CC1
71 | 198 to 203 °C | CCCN1C2CCC1CC(Nc1ccc3[nH]ncc3c1)C2.Cl.Cl (centres unmarked)
72 | 219 to 220 °C (dec.) | CS(=O)(=O)N1CCC(Nc2ccc3[nH]ncc3c2)CC1
73 | 197 to 198 °C | NCc1ccc(COc2ccc3[nH]ncc3c2)cc1
74 | 116 to 117 °C | Cn1ncc2cc(NC3CCN(Cc4ccccc4)CC3)ccc21
75 | 175 to 177 °C | Cc1n[nH]c2ccc(NC3CCNCC3)cc12
76 | 130 to 131 °C | COc1c(OS(C)(=O)=O)ccc2[nH]ncc12 (as salt: methanesulfonate)
77 | 138 to 140 °C | c1cc2[nH]ncc2cc1OC1CCCN(C2CCCC2)CC1 (centres unmarked)

Row | melting point | Compound
78 | 234 to 235 °C (dec.) | CN(C)C(=O)c1ccccc1Nc1ccc2[nH]ncc2c1
79 | 194 to 196 °C | O=C1c2ccccc2C(=O)N1[C@H]1CC[C@@H](Oc2ccc3[nH]ncc3c2)CC1
80 | 197 to 198 °C | O=C1c2ccccc2C(=O)N1[C@H]1CCC[C@H](Oc2ccc3[nH]ncc3c2)C1 (relative stereo)
81 | 183 to 185 °C | COc1ccc2ccccc2c1CNc1ccc2[nH]ncc2c1
82 | 144 to 146 °C | c1cc2[nH]ncc2cc1OC1CCCCC1
83 | 126 to 131 °C | Cc1c(OC2CCCN(C3CCCC3)CC2)ccc2[nH]ncc12 (centres unmarked)
84 | 108 to 110 °C | Cn1cc2cc(NC3CCN(Cc4ccccc4)CC3)ccc2n1
85 | 184 to 186 °C (dec.) | c1cc2[nH]ncc2cc1NCCC1CCNCC1
86 | 89 to 90 °C | c1ccc(CN2CCC(Nc3ccc4oncc4c3)CC2)cc1
87 | 132 to 136 °C | O=S(=O)(c1ccccc1)N1CCC(Nc2ccc3[nH]ncc3c2)CC1
88 | 155 to 156 °C | CCC(=O)N[C@H]1CC[C@@H](Oc2ccc3[nH]ncc3c2SC)CC1
89 | 242 to 245 °C (dec.) | O=C(O)C(F)(F)F.c1cc2[nH]ncc2cc1NC1CCOCC1
90 | 151 to 153 °C | c1cc2[nH]ncc2cc1OC1CCOCC1 [Example 365]
91 | 291 to 293 °C (dec.) | CS(=O)(=O)N1CCC(C(=O)Nc2ccc3[nH]ncc3c2)CC1
92 | 243 to 244 °C (dec.) | O=C(CCC(F)(F)F)Nc1ccc2[nH]ncc2c1
93 | 218 to 220 °C (dec.) | O=C(O)CCC(=O)Nc1ccc2[nH]ncc2c1
94 | 159 to 160 °C | c1cc2[nH]ncc2cc1OC1CCCNCC1 (centres unmarked)
95 | 183 to 185 °C | Cc1c(OC2CCCNC2)ccc2[nH]ncc12 (centres unmarked)
96 | 242 to 244 °C (dec.) | Cc1c(O[C@@H]2CCC[C@H](NC(=O)C3CCCC3)C2)ccc2[nH]ncc12 (relative stereo)
97 | 190 to 193 °C | CCCCC(=O)N[C@H]1CCC[C@@H](Oc2ccc3[nH]ncc3c2C)C1 (relative stereo)
98 | 158 to 161 °C | N#Cc1cccc(COc2ccc3[nH]ncc3c2)c1
